The subject of assay [1] is CXCR2-expressing cells. To be noted: known; cited from earlier work.
Assay [2] relates to OCUM-12 gastric cancer cell line. As to the kind of experiment: Antitumor activity test, model with OCUM-12 orthotopic transplantation (prevention model). The class given is in vivo, mouse. To be noted: orally 100 mg/kg/day, once a day for 5 consecutive days followed by 2-day withdrawal. The protocol:
A model with OCUM-12 orthotopic transplantation was prepared to evaluate the above 4 types of candidate antibodies for their in vivo CXCR2 migration inhibitory activity and antitumor activity in a xenograft model with OCUM-12 orthotopic transplantation.
For use as mice, female nude mice (BALB/cAJcl-nu/nu) at 5 to 6 weeks of age were purchased from CLEA Japan, Inc., Japan. For use as human cancer cells, a gastric cancer cell line, OCUM-12, was provided by University Public Corporation Osaka, Japan. […]
On the day following the above transplantation, the mice were randomized into groups (8 or 6 mice per group) and intraperitoneally administered with PBS as a control and with 4 types of candidate antibodies (1A-7H10, 4A-2F7, 5A-5E11 and 028-8-12) and 3 types of non-candidate antibodies (1A-3C6, 1A-2H3 and 4A-5B11) at a dose of 20 mg/kg. […] After 3 weeks had passed from the transplantation, the mice were sacrificed, and the short- and long-axis diameters of tumors formed in their gastric walls were each measured with a caliper. The tumor size was calculated according to the following: 1/2 short-axis diameter (mm)×1/2 long-axis diameter (mm)×3.14. […]
The humanized antibodies were evaluated for their in vivo antitumor activity and CXCR2 migration inhibitory activity in a xenograft model with OCUM-12 orthotopic transplantation. […]

Assay [3] concerns CXCR2-expressing cells. In words: In vivo migration inhibitory activity test on CXCR2-expressing cells, OCUM-12 orthotopic transplantation (prevention model). The arrangement: species or system mouse. To be noted: navarixin orally 100 mg/kg/day, once a day for 5 consecutive days followed by 2-day withdrawal. The text has this: The stomachs after measurement of the tumor size in [3-1] above were excised and fixed overnight at room temperature with a 10% neutral buffered formalin solution (Wako Pure Chemical Industries, Ltd., Japan), followed by replacement with PBS. Then, paraffin embedding and section preparation were outsourced to Applied Medical Research Laboratory, Japan. The prepared gastric tumor sections were immunohistologically stained with an anti-CXCR2 antibody to evaluate in vivo CXCR2 cell migration inhibitory activity. The sections were deparaffinized and rehydrated, and then treated to inactivate endogenous peroxidase. After antigen activation treatment, the sections were blocked with PBS containing 2% skimmed milk and 0.1% Tween-20, and reacted overnight at 4° C. with an anti-CXCR2 antibody (Biorbyt) as a primary antibody, which had been diluted to 0.3 μg/mL with the blocking solution. […]
Navarixin is among small molecular compounds that act on CXCR2 and inhibit CXCL1-CXCR2 signaling. […] Then, using a model with OCUM-12 orthotopic transplantation, the migration inhibition of CXCR2-expressing cells and antitumor activity were evaluated in vivo for Navarixin. […]
The dose-response relationship between antibody dose and in vivo antitumor activity or CXCR2 migration inhibitory activity was evaluated in a xenograft prevention model with OCUM-12 orthotopic transplantation. […]

For the compound `CC[C@@H](Nc1c(Nc2cccc(C(=O)N(C)C)c2O)c(=O)c1=O)c1ccc(C)o1` [Navarixin, reference compound], the “Migration of CXCR2-expressing cells in vitro” value in assay [1] was “known to inhibit the migration of CXCR2-expressing cells in vitro”. Besides, the Antitumor activity entry in assay [2] is given as “no antitumor activity was observed”. Moreover, the “Migration of CXCR2-expressing cells in vivo” value in assay [3] was “significantly inhibit the migration of CXCR2-expressing cells”.

Values taken from US20250154240A1, “ANTI-HUMAN CXCL1 ANTIBODY” (CHIOME BIOSCIENCE INC., priority 2022, published 2025).
